# Measured values: article PMC12723578 (Archiv Der Pharmazie, 2025)
# Values joined by “and” are separate entries in the source; they are usually repeats but may differ in a detail not shown here. Equal entries are not always repeated. Structures can show the parent of a compound that is named as a salt. Where two headings read alike, the source gives them in different places.
# Experiments:
# SARS‐CoV‐2 M^pro [1] = molecular target: T1, SARS‐CoV‐2 M^pro (Severe acute respiratory syndrome coronavirus 2, UniProt P0DTD1); experiment: Screening of M^pro inhibition at 10 and 50 µM (fluorogenic substrate Boc‐Abu‐Tle‐Leu‐Gln‐AMC); type: biochemical; details: for M^pro inhibition (in words): screened at 10 and 50 µM
# [2] = In vitro stability in human plasma; type: in vitro ADME; details: plasma diluted to 80% with sodium phosphate buffer, pH 7.4, male human plasma, 37°C, read-out: plasma half‐life t 1/2
# Method: For the investigation of the in vitro stability of 12 in human plasma, 100 µM of the M^pro inhibitor was incubated with male human plasma at 37°C for five different time periods.
# A volume of 30 µL of a 2 mM compound stock solution in DMSO was mixed with 570 µL of a male human plasma solution (Biomol GmbH, Hamburg, Germany) that was diluted to 80% with 0.05 M sodium phosphate buffer, pH 7.4, and prewarmed at 37°C. The final compound concentration was 100 µM, and the DMSO concentration was 5% (v/v). The mixture was divided into aliquots of 100 µL, which were incubated for different time periods and subsequently quenched by the addition of 200 µL of a 0.05 mg/mL reserpine (internal standard) and 2% AcOH (v/v) solution in MeOH. The samples were vortexed for 1 min, stored on ice for 15 min, and subsequently centrifuged at 15,000 rpm and 4°C for 2 min. After filtration through a 0.45 µm polytetrafluoroethylene membrane filter, the resulting solutions were analyzed by HPLC (Jasco Deutschland GmbH, Pfungstadt, Germany). […] The residual proportion was plotted versus incubation time and non‐linear regression according to Y(t) = Y 0 × e^ (‐kt) provided the first‐order rate constant of degradation k, with Y 0 being the compound proportion at t = 0 and Y(t) the residual proportion after a specific incubation time t. Equation t 1/2 = ln2/k afforded the plasma half‐life t 1/2 (n = 2).
# SARS‐CoV‐2 M^pro [3] = molecular target: T1, SARS‐CoV‐2 M^pro; experiment: Determination of k inac/K i for irreversible inhibitors; type: biochemical; details: for k inac/K i: second‐order rate constant of enzyme inactivation, reactions monitored for 60 min
# SARS‐CoV‐2 [4] = experiment: Cellular antiviral activity, virus plaque assay in A549‐ACE2 cells; type: cell-based
# in vitro = details: human
# SARS‐CoV‐2 M^pro [5] = molecular target: T1, SARS‐CoV‐2 M^pro; experiment: Determination of IC50 and K i values; type: biochemical; details: for Ki: calculated from IC50 with the Cheng‐Prusoff equation
# SARS‐CoV‐2 M^pro [6] = molecular target: T1, SARS‐CoV‐2 M^pro; experiment: Investigation of inhibition reversibility by jump dilution; type: biochemical; details: 25 min preincubation, 100‐fold jump dilution
# A549‐ACE2 cells = details: up to 100 µM
# [7] = Stability in aqueous media
# SARS‐CoV‐2 [8] = details: A549‐ACE2 cells; cited from earlier work
# [9] = phase I study, single‐dose treatment, fasted conditions, without ritonavir coadministration; cited from earlier work
# [10] = read-out: Inhibition @ [I] = 10 µM (%)
# [11] = read-out: Inhibition @ [I] = 50 µM (%)
# [12] = [I] = 50 µM, product formation determined after 10 min
# [13] = product formation determined after 10 min
# [14] = [I] = 10 µM, product formation determined after 10 min
SMILES,inhibition at 10 µM (SARS‐CoV‐2 M^pro [1]; [10]) [%],inhibition at 50 µM (SARS‐CoV‐2 M^pro [1]; [11]) [%],M^pro inhibition (in words) (SARS‐CoV‐2 M^pro [1]),M^pro inhibition reversibility (SARS‐CoV‐2 M^pro [6]),further results
"CN(CC#N)NC(=O)[C@H](Cc1ccccc1)NC(=O)OCc1ccccc1 [Compound 10, Benzyl (S)‐{1‐[2‐(cyanomethyl)‐2‐methylhydrazineyl]‐1‐oxo‐3‐phenylpropan‐2‐yl}carbamate]",10,11,did not exhibit notable inhibitory properties,–,–
"CN(NC(=O)[C@H](Cc1ccccc1)NC(=O)OCc1ccccc1)C(=O)C(F)Cl (stereo partly shown) [Compound 8, Benzyl {[2S]‐1‐[2‐(2‐chloro‐2‐fluoroacetyl)‐2‐methylhydrazinyl]‐1‐oxo‐3‐phenylpropan‐2‐yl}carbamate]",10,16,failed to strongly inhibit,–,–
"COC(=O)/C=C/N(C)NC(=O)[C@H](Cc1ccccc1)NC(=O)OCc1ccccc1 [Compound 1, Methyl (E)‐3‐{2‐[({benzyloxy}carbonyl)‐L‐phenylalanyl]‐1‐methylhydrazineyl}acrylate]",4,0,inactive,–,–
"CCOC(=O)N(C)NC(=O)[C@H](Cc1ccccc1)NC(=O)OCc1ccccc1 [Compound 3, Ethyl 2‐{[(N‐benzyloxy)carbonyl]‐L‐phenylalanyl}‐1‐5;methylhydrazine‐1‐carboxylate]",2,3,did not cause protease inhibition,–,–
"CC(C)(C)[C@H](NC(=O)c1cccs1)C(=O)N[C@@H](Cc1ccccc1)C(=O)NN(Cc1cccc(Cl)c1)C(=O)CCl [Compound 12, N‐{[S]‐1‐[({S}‐1‐{2‐(2‐Chloroacetyl)‐2‐(3‐chlorobenzyl)hydrazineyl}‐1‐oxo‐3‐phenylpropan‐2‐yl)amino]‐3,3‐dimethyl‐1‐oxobutan‐2‐yl}thiophene‐2‐carboxamide]",–,–,–,irreversible,"half-life at 100 µM [2]: 1.6 ± 0.148 h; improvement of k inac/K i value versus 14 (SARS‐CoV‐2 M^pro [3]; 12 compared with 14): 50 fold; k inac/K i (SARS‐CoV‐2 M^pro [3]): 78,900 M^−1s^−1 and 78,900 ± 12,800 M^−1s^−1 and 100% inhibition @ 50 µM^a Ki = 0.0230 µM^b kinac/Ki = 78,900 M^-1s^-1 c EC50 = 0.47 µM^d M^−1s^−1; EC50 (SARS‐CoV‐2 [4]; Severe acute respiratory syndrome coronavirus 2, A549‐ACE2 cells, MOI 0.1, 24 h postinfection, plaque assay, read-out: EC50): 0.47 µM; inhibition at 50 µM (SARS‐CoV‐2 M^pro [1]; [12]): 100%; CC50 at 24 h (in vitro): > 100 µM; Ki (SARS‐CoV‐2 M^pro [5]): 0.023 ± 0.0017 µM; IC50 (SARS‐CoV‐2 M^pro [5]; [13]): 0.0466 ± 0.0034 µM; cytotoxicity (A549‐ACE2 cells): no cytotoxicity"
"COC(=O)CC(=O)N(C)NC(=O)[C@H](Cc1ccccc1)NC(=O)OCc1ccccc1 [Compound 4, Methyl 3‐{2‐[({benzyloxy}carbonyl)‐L‐phenylalanyl]‐1‐6;methylhydrazineyl}‐3‐oxopropanoate]",0,0,inactive,–,–
"CCN(CC)CCOC(=O)c1ccc(N)cc1 [Procaine hydrochloride, reference compound]",–,–,–,–,half-life at 100 µM [2]: 0.13 ± 0.0157 h
"CN(NC(=O)[C@H](Cc1ccccc1)NC(=O)OCc1ccccc1)S(=O)(=O)F [Compound 11, Benzyl (S)‐{1‐[2‐(fluorosulfonyl)‐2‐methylhydrazineyl]‐1‐oxo‐3‐phenylpropan‐2‐yl}carbamate]",40,–,–,irreversible,k inac/K i (SARS‐CoV‐2 M^pro [3]): 54.6 ± 25.0 M⁻¹ s⁻¹ and 54.6 M⁻¹ s⁻¹; stability in aqueous media [7]: not sufficiently stable; IC50 (SARS‐CoV‐2 M^pro [5]): 14.7 ± 0.7 µM; Ki (SARS‐CoV‐2 M^pro [5]): 7.24 ± 0.34 µM
"CC(C)(C)[C@H](NC(=O)c1cccs1)C(=O)N[C@@H](Cc1ccccc1)C(=O)NN(Cc1cccc(Cl)c1)C(=O)C(Cl)Cl [Compound 13, N‐{[S]‐1‐[({S}‐1‐{2‐(3‐Chlorobenzyl)‐2‐(2,2‐dichloroacetyl)hydrazineyl}‐1‐oxo‐3‐phenylpropan‐2‐yl)amino]‐3,3‐dimethyl‐1‐oxobutan‐2‐yl}thiophene‐2‐carboxamide]",–,< 50,–,Reversible,–
"CN(NC(=O)[C@H](Cc1ccccc1)NC(=O)OCc1ccccc1)C(=O)C(F)(F)Cl [Compound 9, Benzyl (S)‐{1‐[2‐(2‐chloro‐2,2‐difluoroacetyl)‐2‐methylhydrazineyl]‐1‐oxo‐3‐phenylpropan‐2‐yl}carbamate]",9,15,failed to strongly inhibit,–,–
"Cn1cnc(Cn2c(=O)[nH]/c(=N\c3cc4cn(C)nc4cc3Cl)n(Cc3cc(F)c(F)cc3F)c2=O)n1 [ensitrelvir, reference compound]",–,–,–,–,"EC50 (SARS‐CoV‐2 [4]; Severe acute respiratory syndrome coronavirus 2, A549-ACE2, 24 h): 0.028 µM; CC50 (in vitro): > 100 µM"
"CCOC(=O)/C=C/C(=O)N(C)NC(=O)[C@H](Cc1ccccc1)NC(=O)OCc1ccccc1 [Compound 5, Ethyl (E)‐4‐{2‐[({benzyloxy}carbonyl)‐L‐phenylalanyl]‐1‐methylhydrazineyl}‐4‐oxobut‐2‐enoate]",7,13,did not cause protease inhibition,–,–
"CN(NC(=O)[C@H](Cc1ccccc1)NC(=O)OCc1ccccc1)C(=O)C(Cl)Cl [Compound 7, Benzyl (S)‐{1‐[2‐(2,2‐dichloroacetyl)‐2‐methylhydrazineyl]‐1‐oxo‐3‐phenylpropan‐2‐yl}carbamate]",–,–,–,reversible,inhibition at 10 µM (SARS‐CoV‐2 M^pro [1]; [14]): 85%; inhibition at 50 µM (SARS‐CoV‐2 M^pro [1]; [12]): 100%; Ki (SARS‐CoV‐2 M^pro [5]): 1.22 ± 0.09 µM; IC50 (SARS‐CoV‐2 M^pro [5]; [13]): 2.47 ± 0.18 µM
CC(C)(C)[C@H](NC(=O)C(F)(F)F)C(=O)N1C[C@H]2[C@@H]([C@H]1C(=O)N[C@H](C#N)C[C@@H]1CCNC1=O)C2(C)C [nirmatrelvir],–,–,–,–,EC50 (SARS‐CoV‐2 [8]): 0.054 µM; plasma half‐life [9]: 2.03 h
"CC(C)(C)[C@H](NC(=O)c1cccs1)C(=O)N[C@@H](Cc1ccccc1)C(=O)NN(Cc1cccc(Cl)c1)C(=O)C(F)Cl (mixture of isomers) [Compound 14, N‐{[2S]‐1‐[({2S}‐1‐{2‐(2‐Chloro‐2‐fluoroacetyl)‐2‐(3‐chlorobenzyl)hydrazineyl}‐1‐oxo‐3 phenylpropan‐2‐yl)amino]‐3,3‐dimethyl‐1‐oxobutan‐2‐yl}thiophene‐2‐carboxamide]",–,69,–,irreversible,Ki (SARS‐CoV‐2 M^pro [5]): 4.34 ± 0.6 µM; IC50 (SARS‐CoV‐2 M^pro [5]; [13]): 8.82 ± 1.22 µM
"COC(=O)/C=C(\C(=O)OC)N(C)NC(=O)[C@H](Cc1ccccc1)NC(=O)OCc1ccccc1 [Compound 2, Dimethyl 2‐{2‐[({benzyloxy}carbonyl)‐L‐phenylalanyl]‐1‐methylhydrazineyl}maleate]",1,2,inactive,–,–
"CN(NC(=O)[C@H](Cc1ccccc1)NC(=O)OCc1ccccc1)C(=O)CCl [Compound 6, Benzyl (S)‐{1‐[2‐(2‐chloroacetyl)‐2‐methylhydrazineyl]‐1‐oxo‐3‐phenylpropan‐2‐yl}carbamate]",–,–,–,irreversible,inhibition at 10 µM (SARS‐CoV‐2 M^pro [1]; [14]): 19%; inhibition at 50 µM (SARS‐CoV‐2 M^pro [1]; [12]): 55%; Ki (SARS‐CoV‐2 M^pro [5]): 14.8 ± 0.8 µM; IC50 (SARS‐CoV‐2 M^pro [5]; [13]): 30.1 ± 1.7 µM
